The values below are quoted from earlier work in patent publication US20060251722A1, “Multi-component vitamin and mineral supplement for the optimal absorption of components” (Novavax, Inc., priority 2005, published 2006).

For the data set the following is noted: rat, in vivo, po.

Regarding carbonyl iron, the “bioavailability relative to other elemental iron forms” value was 2-5 times.
